Data as given in patent US20140342379A1, “Means and Methods for Assessing Gonadal Toxicity” (BASF SE, priority 2011, published 2014).
Marks after values point to notes of the source that are not given here.

System: male rats
Assay: 28-day repeated dose study, plasma metabolite profiling (GC-MS, LC-MS), male rats
Type: in vivo, rat
Source text: Drinking water was also offered ad libitum.

COCCO [2-Methoxyethanol]
3-Hydroxybutyrate, plasma, treatment ratio versus control (day 7): 0.45*
3-O-Methylsphingosine (d18:1), plasma, treatment ratio versus control (day 7): 0.53*
5-Oxoproline, plasma, treatment ratio versus control (day 7): 0.76*
Campesterol, plasma, treatment ratio versus control (day 7): 0.58*
Ceramide (d18:1,C24:0), plasma, treatment ratio versus control (day 7): 0.75*
Ceramide (d18:1,C24:1), plasma, treatment ratio versus control (day 7): 0.82
Cholesterol, plasma, treatment ratio versus control (day 7): 0.58*
Coenzyme Q9, plasma, treatment ratio versus control (day 7): 0.57*
Coenzyme Q10, plasma, treatment ratio versus control (day 7): 0.7*
Dodecanol, plasma, treatment ratio versus control (day 7): 0.8
Glutamine, plasma, treatment ratio versus control (day 7): 0.68*
Histidine, plasma, treatment ratio versus control (day 7): 1.13
Isopalmitic acid (C16:0), plasma, treatment ratio versus control (day 7): 1.03
Lignoceric acid (C24:0), plasma, treatment ratio versus control (day 7): 0.61*
Linoleic acid (C18:cis[9,12]2), plasma, treatment ratio versus control (day 7): 1.07
Lysine, plasma, treatment ratio versus control (day 7): 1.22*
Myristic acid (C14:0), plasma, treatment ratio versus control (day 7): 0.87
Palmitic acid (C16:0), plasma, treatment ratio versus control (day 7): 0.92
Palmitoleic acid (C16:cis[9]1), plasma, treatment ratio versus control (day 7): 0.71*
Sphingomyelin (d18:1,C16:0), plasma, treatment ratio versus control (day 7): 0.84*
Sphingomyelin (d18:1,C24:0), plasma, treatment ratio versus control (day 7): 0.68*
Stearic acid (C18:0), plasma, treatment ratio versus control (day 7): 0.8*
Threonine, plasma, treatment ratio versus control (day 7): 1.72*
alpha-Tocopherol, plasma, treatment ratio versus control (day 7): 0.78
erythro-Sphingosine, plasma, treatment ratio versus control (day 7): 0.57*
3-Hydroxybutyrate, plasma, treatment ratio versus control (day 14): 0.24*
3-O-Methylsphingosine (d18:1), plasma, treatment ratio versus control (day 14): 0.67*
5-Oxoproline, plasma, treatment ratio versus control (day 14): 0.67*
Ceramide (d18:1,C24:0), plasma, treatment ratio versus control (day 14): 0.7*
Ceramide (d18:1,C24:1), plasma, treatment ratio versus control (day 14): 0.62*
Cholesterol, plasma, treatment ratio versus control (day 14): 0.61*
Coenzyme Q9, plasma, treatment ratio versus control (day 14): 0.58*
Coenzyme Q10, plasma, treatment ratio versus control (day 14): 0.49*
Dodecanol, plasma, treatment ratio versus control (day 14): 0.77*
Glutamine, plasma, treatment ratio versus control (day 14): 0.71
Histidine, plasma, treatment ratio versus control (day 14): 1.4*
Isopalmitic acid (C16:0), plasma, treatment ratio versus control (day 14): 0.43*
Lignoceric acid (C24:0), plasma, treatment ratio versus control (day 14): 0.46*
Linoleic acid (C18:cis[9,12]2), plasma, treatment ratio versus control (day 14): 0.77*
Myristic acid (C14:0), plasma, treatment ratio versus control (day 14): 0.57*
Palmitic acid (C16:0), plasma, treatment ratio versus control (day 14): 0.75*
Palmitoleic acid (C16:cis[9]1), plasma, treatment ratio versus control (day 14): 0.39*
Sphingomyelin (d18:1,C16:0), plasma, treatment ratio versus control (day 14): 0.88*
Sphingomyelin (d18:1,C24:0), plasma, treatment ratio versus control (day 14): 0.56*
Stearic acid (C18:0), plasma, treatment ratio versus control (day 14): 0.84*
Threonine, plasma, treatment ratio versus control (day 14): 2.93*
alpha-Tocopherol, plasma, treatment ratio versus control (day 14): 0.76*
erythro-Sphingosine, plasma, treatment ratio versus control (day 14): 0.67*

Cc1ncc[nH]1 [2-Methylimidazole]
18-Hydroxy-11-deoxycorticosterone, plasma, treatment ratio versus control (day 7): 0.49*
Alanine, plasma, treatment ratio versus control (day 7): 0.76*
Arachidonic acid (C20:cis[5,8,11,14]4), plasma, treatment ratio versus control (day 7): 0.76*
Coenzyme Q9, plasma, treatment ratio versus control (day 7): 0.72*
Creatinine, plasma, treatment ratio versus control (day 7): 1.23*
DAG (C18:1, C18:2), plasma, treatment ratio versus control (day 7): 0.81
Fructose-6-phosphate, plasma, treatment ratio versus control (day 7): 0.76
Galactose, lipid fraction, plasma, treatment ratio versus control (day 7): 0.81*
Glucosamine, plasma, treatment ratio versus control (day 7): 1
Glucose, plasma, treatment ratio versus control (day 7): 0.86*
Glycerol, polar fraction, plasma, treatment ratio versus control (day 7): 0.75*
Heneicosanoic acid (C21:0), plasma, treatment ratio versus control (day 7): 0.92
Lactate, plasma, treatment ratio versus control (day 7): 0.68
Linolenic acid (C18:cis[9,12,15]3), plasma, treatment ratio versus control (day 7): 0.59*
Lysine, plasma, treatment ratio versus control (day 7): 0.81*
Malate, plasma, treatment ratio versus control (day 7): 0.65*
Oleic acid (C18:cis[9]1), plasma, treatment ratio versus control (day 7): 0.85*
Palmitoleic acid (C16:cis[9]1), plasma, treatment ratio versus control (day 7): 0.81
Phenylalanine, plasma, treatment ratio versus control (day 7): 0.96
Phosphate (inorganic and organic phosphates), plasma, treatment ratio versus control (day 7): 0.9*
Pyruvate, plasma, treatment ratio versus control (day 7): 0.84
Spermidine, plasma, treatment ratio versus control (day 7): 0.77*
TAG (C16:0,C16:1), plasma, treatment ratio versus control (day 7): 0.67*
Uracil, plasma, treatment ratio versus control (day 7): 0.67*
myo-Inositol, plasma, treatment ratio versus control (day 7): 0.85*
trans-4-Hydroxyproline, plasma, treatment ratio versus control (day 7): 0.73*
18-Hydroxy-11-deoxycorticosterone, plasma, treatment ratio versus control (day 14): 0.59*
Alanine, plasma, treatment ratio versus control (day 14): 0.84*
Arachidonic acid (C20:cis[5,8,11,14]4), plasma, treatment ratio versus control (day 14): 0.83*
Coenzyme Q9, plasma, treatment ratio versus control (day 14): 0.67*
Creatinine, plasma, treatment ratio versus control (day 14): 1.45*
DAG (C18:1, C18:2), plasma, treatment ratio versus control (day 14): 0.74*
Fructose-6-phosphate, plasma, treatment ratio versus control (day 14): 1.08
Galactose, lipid fraction, plasma, treatment ratio versus control (day 14): 1
Glucosamine, plasma, treatment ratio versus control (day 14): 1.15
Glucose, plasma, treatment ratio versus control (day 14): 0.88*
Glycerol, polar fraction, plasma, treatment ratio versus control (day 14): 0.84*
Heneicosanoic acid (C21:0), plasma, treatment ratio versus control (day 14): 0.87*
Lactate, plasma, treatment ratio versus control (day 14): 0.69*
Linolenic acid (C18:cis[9,12,15]3), plasma, treatment ratio versus control (day 14): 0.57*
Lysine, plasma, treatment ratio versus control (day 14): 0.97
Malate, plasma, treatment ratio versus control (day 14): 0.8*
Oleic acid (C18:cis[9]1), plasma, treatment ratio versus control (day 14): 0.82*
Palmitoleic acid (C16:cis[9]1), plasma, treatment ratio versus control (day 14): 0.77*
Phenylalanine, plasma, treatment ratio versus control (day 14): 0.96*
Phosphate (inorganic and organic phosphates), plasma, treatment ratio versus control (day 14): 0.89*
Pyruvate, plasma, treatment ratio versus control (day 14): 0.69*
Spermidine, plasma, treatment ratio versus control (day 14): 0.69*
TAG (C16:0,C16:1), plasma, treatment ratio versus control (day 14): 0.38*
Uracil, plasma, treatment ratio versus control (day 14): 0.67*
myo-Inositol, plasma, treatment ratio versus control (day 14): 0.97
trans-4-Hydroxyproline, plasma, treatment ratio versus control (day 14): 0.75*
18-Hydroxy-11-deoxycorticosterone, plasma, treatment ratio versus control (day 28): 0.58
Alanine, plasma, treatment ratio versus control (day 28): 0.92*
Arachidonic acid (C20:cis[5,8,11,14]4), plasma, treatment ratio versus control (day 28): 0.97
Coenzyme Q9, plasma, treatment ratio versus control (day 28): 0.73*
Creatinine, plasma, treatment ratio versus control (day 28): 1.65*
DAG (C18:1, C18:2), plasma, treatment ratio versus control (day 28): 0.67
Fructose-6-phosphate, plasma, treatment ratio versus control (day 28): 0.83*
Galactose, lipid fraction, plasma, treatment ratio versus control (day 28): 1.15
Glucosamine, plasma, treatment ratio versus control (day 28): 0.84
Glucose, plasma, treatment ratio versus control (day 28): 0.87*
Glycerol, polar fraction, plasma, treatment ratio versus control (day 28): 0.79*
Heneicosanoic acid (C21:0), plasma, treatment ratio versus control (day 28): 1.08
Lactate, plasma, treatment ratio versus control (day 28): 0.77*
Linolenic acid (C18:cis[9,12,15]3), plasma, treatment ratio versus control (day 28): 0.53*
Lysine, plasma, treatment ratio versus control (day 28): 0.88*
Malate, plasma, treatment ratio versus control (day 28): 0.69*
Oleic acid (C18:cis[9]1), plasma, treatment ratio versus control (day 28): 0.8*
Palmitoleic acid (C16:cis[9]1), plasma, treatment ratio versus control (day 28): 0.88*
Phenylalanine, plasma, treatment ratio versus control (day 28): 0.93*
Phosphate (inorganic and organic phosphates), plasma, treatment ratio versus control (day 28): 1.02
Pyruvate, plasma, treatment ratio versus control (day 28): 0.69*
Spermidine, plasma, treatment ratio versus control (day 28): 0.79*
TAG (C16:0,C16:1), plasma, treatment ratio versus control (day 28): 0.71*
Uracil, plasma, treatment ratio versus control (day 28): 0.77*
myo-Inositol, plasma, treatment ratio versus control (day 28): 0.91*
trans-4-Hydroxyproline, plasma, treatment ratio versus control (day 28): 0.81*

C#CC1(O)CCC2C3CCc4cc(O)ccc4C3CCC21C (stereo not drawn) [17-alpha-Ethynylestradiol, 17-ethynyl-13-methyl-7,8,9,11,12,13,14,15,16,17-decahydro-6H-cyclopenta[a]phenanthrene-3,17-diol]
3-Hydroxybutyrate, plasma, treatment ratio versus control (day 7): 0.71
3-O-Methylsphingosine (d18:1), plasma, treatment ratio versus control (day 7): 0.06
Campesterol, plasma, treatment ratio versus control (day 7): 0.08
Cholesterol, plasma, treatment ratio versus control (day 7): 0.05
Coenzyme Q9, plasma, treatment ratio versus control (day 7): 0.09*
Coenzyme Q10, plasma, treatment ratio versus control (day 7): 0.09*
Glutamine, plasma, treatment ratio versus control (day 7): 0.84
Histidine, plasma, treatment ratio versus control (day 7): 2.33*
Lysine, plasma, treatment ratio versus control (day 7): 1.47
Palmitoleic acid (C16:cis[9]1), plasma, treatment ratio versus control (day 7): 0.2
Stearic acid (C18:0), plasma, treatment ratio versus control (day 7): 0.18
Threonine, plasma, treatment ratio versus control (day 7): 1.44*
erythro-Sphingosine, plasma, treatment ratio versus control (day 7): 0.03
3-Hydroxybutyrate, plasma, treatment ratio versus control (day 14): 0.23*
3-O-Methylsphingosine (d18:1), plasma, treatment ratio versus control (day 14): 0.35*
Campesterol, plasma, treatment ratio versus control (day 14): 0.6*
Cholesterol, plasma, treatment ratio versus control (day 14): 0.57*
Coenzyme Q9, plasma, treatment ratio versus control (day 14): 0.86
Coenzyme Q10, plasma, treatment ratio versus control (day 14): 0.36*
Glutamine, plasma, treatment ratio versus control (day 14): 0.91
Histidine, plasma, treatment ratio versus control (day 14): 2.16*
Lignoceric acid (C24:0), plasma, treatment ratio versus control (day 14): 0.47*
Lysine, plasma, treatment ratio versus control (day 14): 1.4*
Palmitoleic acid (C16:cis[9]1), plasma, treatment ratio versus control (day 14): 1.28
Stearic acid (C18:0), plasma, treatment ratio versus control (day 14): 0.67*
Threonine, plasma, treatment ratio versus control (day 14): 1.85*
erythro-Sphingosine, plasma, treatment ratio versus control (day 14): 0.45*
